# From US20160067232A1, “METHODS FOR TREATING A STROKE-RELATED SENSORIMOTOR IMPAIRMENT USING AMINOPYRIDINES” (Acorda Therapeutics, Inc., priority 2011, published 2016)
# Values joined by “and” are separate entries in the source; they are usually repeats but may differ in a detail not shown here. Equal entries are not always repeated.
# Tests used:
# [1] = system: rats with middle cerebral artery occlusion (MCAO); assay: Infarct volume measurement (H&E), MCAO rats (Example 2); type: in vivo, Sprague Dawley rat; settings: Day 63
# Protocol: Euthanasia and post-mortem processing: Infarct Volume analysis. After the last behavioral assessment, rats were anesthetized deeply with ketamine/xylazine (100 mg/kg ketamine, 10 mg/kg xylazine, i.p.) and perfused transcardially with normal saline (with heparin 2 unit/ml) followed by 4% paraformaldehyde or formalin on Day 63. Brains were harvested and processed for histological assessment. A subset of 10 brains per group was processed for infarct volume measurement (H&E staining).
# Infarct measurement: Brains were embedded in paraffin and 5 micron thick coronal sections were cut using a microtome. Sections were stained with hematoxylin and eosin (H&E), using standard methods. Seven coronal sections (+4.7, +2.7, +0.7, −1.3, −3.3, −5.3 and −7.3, compared to bregma respectively) from each brain were photographed by a digital camera, and the infarct area on each slice was determined by NIH Image (Image J) using the “indirect method” (area of the intact contralateral [left] hemisphere−area of intact regions of the ipsilateral [right] hemisphere) to correct for brain edema. Infarct areas were then summed among slices and multiplied by slice thickness (the distance between sections) to give total infarct volume, which was expressed as a percentage of intact contralateral hemispheric volume.
# [2] = system: rats with middle cerebral artery occlusion (MCAO); assay: Body swing test (% right swing), MCAO rats, double crossover study (Example 2); type: in vivo, Sprague Dawley rat; settings: for Body Swing Test (% right Swing), individual animals: one value per rat
# Protocol: 4-AP was evaluated for its ability to promote functional sensorimotor improvement following ischemic stroke in rats with stable motor deficits at times remote from their ischemic events. The animal model mimics the conditions in human ischemic stroke and is produced by middle cerebral artery occlusion (MCAO), which results in extensive infarction in cerebral cortex and striatum, including the cortical spinal tract (white matter).
# In particular, the MCAO model in Sprague Dawley rats that was utilized in the experiments presented below mimics the conditions in human ischemic stroke. In this model, focal cerebral infarcts were made by permanent occlusion of the proximal right middle cerebral artery (MCA) using a modification of the method of Tamura et al. (No To Shinkei 1986; 38:747-51). Briefly, the temporalis muscle was bisected and reflected through an incision made midway between the eye and the ear canal. The proximal MCA was exposed through a subtemporal craniectomy without removing the zygomatic arch and without transecting the facial nerve.
# Dosing and Treatment: Rats were treated in accordance with the dosing schedule shown in Tables 2A, 2B, 3 and FIG. 2, with each Phase being a two week period of time. A solution of 4-AP was used in this experiment. Dosing was started at 4 weeks after ischemic event. 4-aminopyridine was dissolved in water for injection (WFI, Cellgro) and sterile filtered. Final concentrations of 0.315 mg/mL or 1.0 mg/mL of 4-aminopyridine were delivered at 2 mL/kg by gastric gavage, resulting in final doses of 0.63 mg/kg and 2 mg/kg respectively. Vehicle control treatment was WFI delivered at 2 mL/kg by gastric gavage. This study was divided into three treatment phases (1-3) with each randomized cohort of animals receiving a different dose level during each of the treatment phases. Starting on day 30 after MCAO (Day 30, start of phase 1), the animals received gavage dosing of solutions (2 mL/kg) approximately 12 hours apart, for a total of five doses. The same schedule was repeated with different treatment on Day 44 and Day 58 for phase 2 and 3 of the study, respectively. Animals were not treated during the 10 days between phases (washout period).
# Treatment groups: Dosing was started 4 weeks after MCAO surgery. During these 4 weeks, weekly behavioral assessments, as defined below, were performed. Two dose levels of 4-AP plus vehicle control were assessed, with treatment starting at 4 weeks after ischemic event. All dosing was via gastric gavage, volume not to exceed 2 mL/kg. Animals were given the first dose and behavioral assessments were performed starting 60 minutes after dosing. Animals then received the second dose that day at the appropriate time and b.i.d (preferably every 12 hours) thereafter for 2 more days (3 total days of dosing, 5 total doses). One hour after the 5th dose, animals were subjected to behavioral assessments as defined below. Following the final behavioral assessment, drug was withdrawn for 10 or 11 days, behavior was re-assessed, and then animals were re-challenged with a cross-over treatment (Phase 2 of Table 2B) as described in Tables 2A, 2B and 3, followed by the same behavioral testing and dosing regimen. This cross-over was repeated one more time as well (Phase 3 of Table 2B) (see FIG. 2).
# Behavioral test details: Behavioral evaluations were done by evaluators blinded to treatment assignment. Blinded assessments of sensorimotor function were performed just prior to MCAO surgery, 24 hours after MCAO surgery and weekly thereafter until the first phase of dosing using limb placing and body swing behavioral tests. As described above, behavioral assessments were timed exactly with dosing times. Animals were tested one hour after the 1st and 5th doses of each phase (i.e., Days 30 and 32 of the first phase, Days 44 and 46 of the second phase; and Days 58 and 60 of the third phase); animals were also tested during the washout periods on Days 42 and 56. […]
# [3] = human subjects; Donovan et al., Spinal Cord 2000; cited from earlier work
# [4] = typical; also printed as 94 ng/mL^−1; cited from earlier work
smiles,measurement,setting,value
Nc1ccncc1 [4-aminopyridine],Mean infarct volume (% of contralateral hemisphere),"[1]; Group 1 (sequence high, low, vehicle)",45.0 (±1.8) %
same,Mean infarct volume (% of contralateral hemisphere),"[1]; Group 2 (sequence low, vehicle, high)",41.4 (±2.3) %
same,Mean infarct volume (% of contralateral hemisphere),"[1]; Group 3 (sequence vehicle, high, low)",39.0 (±3.3) %
same,"Body swing function, low dose compared to vehicle, second mixed model","[2]; 0.63 mg/kg b.i.d. p.o., level 0.05",didn't show the statistical significant improvement
same,"Body swing function, low dose compared to vehicle, first mixed model","[2]; 0.63 mg/kg b.i.d. p.o., p=0.033",significantly improved the body swing function
same,"Body swing function, high dose compared to vehicle","[2]; 2 mg/kg b.i.d. p.o., first mixed model p=0.0131, second p<0.0001",significantly improved the body swing function
same,"Body Swing Test (% right Swing), individual animals","[2]; Group 1 (sequence hlv), D30 after MCAO, phase 1, high dose",33.33% and 40.00% (2×) and 30.00%
same,"Body Swing Test (% right Swing), individual animals","[2]; Group 1 (sequence hlv), D32 after MCAO, phase 1, high dose",50.00% (3×) and 40.00% (2×) and 30.00%
same,"Body Swing Test (% right Swing), individual animals","[2]; Group 1 (sequence hlv), D44 after MCAO, phase 2, low dose",33.33% and 50.00% and 40.00% (2×) and 30.00% (2×)
same,"Body Swing Test (% right Swing), individual animals","[2]; Group 1 (sequence hlv), D46 after MCAO, phase 2, low dose",33.33% and 30.00% and 20.00% (2×) and 40.00%
same,"Body Swing Test (% right Swing), individual animals","[2]; Group 2 (sequence lvh), D30 after MCAO, phase 1, low dose",20.00% and 40.00% and 30.00% (2×)
same,"Body Swing Test (% right Swing), individual animals","[2]; Group 2 (sequence lvh), D32 after MCAO, phase 1, low dose",40.00% and 30.00% (2×)
same,"Body Swing Test (% right Swing), individual animals","[2]; Group 2 (sequence lvh), D58 after MCAO, phase 3, high dose",40.00% and 50.00% (2×)
same,"Body Swing Test (% right Swing), individual animals","[2]; Group 2 (sequence lvh), D60 after MCAO, phase 3, high dose",40.00% (5×) and 50.00% (4×)
same,"Body Swing Test (% right Swing), individual animals","[2]; Group 3 (sequence vhl), D44 after MCAO, phase 2, high dose",40.00% (3×) and 43.33% (2×) and 46.67% (2×) and 53.33% and 13.33% and 36.67% and 50.00% (2×) and 23.33% and 33.33%
same,"Body Swing Test (% right Swing), individual animals","[2]; Group 3 (sequence vhl), D46 after MCAO, phase 2, high dose",40.00% (3×) and 43.33% (4×) and 50.00% and 30.00% (2×) and 53.33% (3×) and 20.00% and 23.33%
same,"Body Swing Test (% right Swing), individual animals","[2]; Group 3 (sequence vhl), D58 after MCAO, phase 3, low dose",30.00% (3×) and 46.67% (3×) and 40.00% (2×) and 20.00% (3×) and 53.33% and 33.33%
same,"Body Swing Test (% right Swing), individual animals","[2]; Group 3 (sequence vhl), D60 after MCAO, phase 3, low dose",30.00% (2×) and 43.33% (2×) and 36.67% (4×) and 50.00% (2×) and 26.67% and 23.33%
same,"Body swing scores, Day 56 vs. Day 60","[2]; Group 3, third treatment phase, low dose 0.63 mg/kg",unchanged
same,"Effect on global body control, body swing test (FIG. 5)","[2]; low or high dose, reversible and dose-dependent",effective to improve global body control
same,delay in the peak concentration in cerebrospinal fluid compared to that in the blood,[3],approximately an hour
same,4-AP plasma concentrations obtained in clinical studies,[4],< 1 µM
